Test system: C. violaceum CV026
Test: Preliminary screening of bacterial quorum sensing agonistic / inhibitory activity on LB plate (purple stain / white circle)
Assay type: cell-based
Conditions: 1 μl of 0.065M compound spotted on plate; inhibitory screen with inducer C6-HSL; 30° C., 16-18 h
Experimental: 1.1 Preparation work: different compounds to be tested (Compounds 1-40 prepared in Example 1-40) were weighted and then were dissolved in 200 μl DMSO (dimethyl sulfoxide) to prepare a solution at a concentration of 0.065M. 5.0 mg inducer, N-hexanoyl homoserine lactone (C6-HSL, purchased from Sigma Company), was weighted and was dissolved in 200 μl DMSO (at a concentration of 0.125M), and the compounds and the inducer were stored at 4 for further use. C. violaceum CV026 (donated by Professor McLean J C from Texas State University) in LB culture medium (LB culture medium consisting of 1% (percentage by mass) tryptone, 0.5% (percentage by mass) yeast extract, 1% (percentage by mass) NaCl and water) was cultured under shaking in a shaker at 30, 200 rpm to get the culture medium for further use.
1.2 Method for preliminary screening of compounds having agonistic activity: 400 μl C. violaceum CV026 (at a bacterial concentration of 1×10^8/ml) was added to 5 ml melted semi-solid LB culture medium, and was mixed well; the mixed culture medium was poured into a solid LB plate; when the mixed culture medium was solidified on the plate, lattice was made thereon; 1 μl of the dissolved compounds to be tested (Compounds 1-40 in Examples 1-40, at a concentration of 0.065M) was spotted on the plate; when the compounds on the plate was dried in air, the plate was put in a 30° C. oven upside down and was cultured for a period of 16-18 h. If the compound to be tested has an agonistic effect on C. violaceum CV026 on the LB plate, purple stain will be induced on the LB plate. The agonistic activity of a compound is determined depending on whether purple stain is induced for C. violaceum CV026 on LB plate as well as the purple depth.
1.3 Method for preliminary screening of compounds having inhibitory activity: the inducer C6-HSL was diluted gradiently to 1000 times by means of 2-fold dilution; 15 μl diluted inducer and 400 μl C. violaceum CV026 in exponential phase (at a bacterial concentration of 1×10^8/ml) were mixed well and then were added to a 5 ml melted semi-solid LB culture medium; the mixture of inducer, C. violaceum, and semi-solid LB was poured onto a solid LB plate; when the mixture was solidified on the plate, lattice was made thereon: 1 μl of the dissolved compounds to be tested (Compounds 1-40 in Examples 1-40, at a concentration of 0.065M) was spotted on the plate; when the compounds on the plate were dried in air, the plate was put in a 30° C. oven upside down and was cultured for a period of 16-18 h. If the compound to be tested has an inhibitory effect on C. violaceum CV026 on the LB plate, white circle will appear on the LB plate. The inhibitory activity of a compound is preliminary determined depending on the size of the white circle appeared after C. violaceum CV026 was inhibited on LB plate.
It is found after preliminary screening that 22 compounds according to the invention have bacterial quorum sensing regulatory activity, and the screening result was shown in Table 1.
With `O=C(NN1CCOC1=O)c1ccc(Br)cc1` [Compound 12, 4-bromo-N-(2-oxo-oxazolidin-3-yl)benzamide] the “Regulatory activity (bacterial quorum sensing regulatory activity)” value (“Regulatory activity” for short) was “±”. With `O=C(NN1CCOC1=O)c1ccc([N+](=O)[O-])cc1` [Compound 7, 4-nitro-N-(2-oxo-oxazolidin-3-yl)benzamide] the “Regulatory activity” value was “−”. For `CCc1ccc(C(=O)NN2CCOC2=O)cc1` [Compound 11, 4-ethyl-N-(2-oxo-oxazolidin-3-yl)benzamide], the “Regulatory activity” value was “−”.

Same assay, conditions: summary of the activity evaluation experiments
For `O=C(NN1CCOC1=O)c1ccc(Br)cc1` [Compound 12, 4-bromo-N-(2-oxo-oxazolidin-3-yl)benzamide], the “Effect on bacterial quorum sensing (summary in words)” value (from here on “Effect on bacterial quorum sensing”) was “both an agonizing effect and an inhibitory effect”. With `O=C(NN1CCOC1=O)c1ccc([N+](=O)[O-])cc1` [Compound 7, 4-nitro-N-(2-oxo-oxazolidin-3-yl)benzamide] the “Effect on bacterial quorum sensing” value was “inhibitory effect on bacterial quorum sensing”. With `CCc1ccc(C(=O)NN2CCOC2=O)cc1` [Compound 11, 4-ethyl-N-(2-oxo-oxazolidin-3-yl)benzamide] the “Effect on bacterial quorum sensing” value was “inhibitory effect on bacterial quorum sensing”.

Test system: C. violaceum CV026
Test: Measurement of IC50 of compounds having an inhibitory effect on C. violaceum quorum sensing (purple pigment absorbance at 585 nm)
Assay type: cell-based
Conditions: Chromobacterium violaceum, CV026, read-out: IC50 of compounds having bacterial quorum sensing inhibitory activity
Experimental: 2. Measurement of IC50 of Compounds Having an Inhibitory Effect on C. violaceum Quorum Sensing
2.1 The wells of a 12-well plate were marked as initial concentration, 2, 4, 8, 16, 32, 64, 128, 256, DMSO group, and a blank control group from left to right and from up to bottom, respectively.
2.2 The monoclonal C. violaceum CV026 grew on LB solid plate was cultured to exponational phase in a 5 ml fresh LB liquid culture medium, 50 μl was then taken for seeding in a 5 ml LB culture medium, and was cultured until the optical density OD value was about 1.0 at 585 nm; the culture was then mixed well with LB culture medium at a ratio of 1:9 by volume (with OD of about 0.15), and was added to a 12-well plate in an amount of 2 ml/well.
2.3 The compounds preliminarily screened to have quorum sensing inhibitory activity were dissolved respectively in DMSO (at a concentration of 0.065M), and then 10 μl was taken into 10 μl DMSO solution to achieve the purpose of 2-fold dilution, and so on. Each compound was gradiently diluted to a highest fold of 256 (gradient dilution of 2, 4, 8, 16, 32, 64, 128, 256 fold).
2.4 To each well, 15 μl 1000-fold diluted inducer C6-HSL (initial concentration of 0.125M) and 8 μl compound solution at each diluted gradient was added; to DMSO control group, 8 μl DMSO was added; to a blank control group, 8 μl LB culture medium was added. Finally, it was ensured that 2 ml culture in each of the 12-well plate was mixed well.
2.5 The 12-well plate was placed in a 30° C. shaker at 130 rpm and was cultured for 10-12 h.
2.6 After the culture was finished, 1 ml culture was taken from each well and was put in a 1.5 ml EP tube and then was centrifugated at 12000 rpm for 10 mins. […] 200 μl supernatant pigment was put in a 96-well culture plate, and was measured for absorbance value at 585 nm by a Microplate Reader, […] the absorbance value and the corresponding concentration were plotted to get the IC50 value.
Work on `O=C(NN1CCOC1=O)c1ccc(Br)cc1` [Compound 12, 4-bromo-N-(2-oxo-oxazolidin-3-yl)benzamide] yielded an IC50 of 7.85 ± 1.71 µM. Work on `O=C(NN1CCOC1=O)c1ccc([N+](=O)[O-])cc1` [Compound 7, 4-nitro-N-(2-oxo-oxazolidin-3-yl)benzamide] yielded an IC50 of 18.7 ± 2.59 µM. For `CCc1ccc(C(=O)NN2CCOC2=O)cc1` [Compound 11, 4-ethyl-N-(2-oxo-oxazolidin-3-yl)benzamide], the IC50 was 13.9 ± 4.21 µM.

Test system: not given
Test: not given
Conditions: not given
`O=C(NN1CCOC1=O)c1ccc(Br)cc1` [Compound 12, 4-bromo-N-(2-oxo-oxazolidin-3-yl)benzamide] showed a melting point of 202 to 204 °C. With `O=C(NN1CCOC1=O)c1ccc([N+](=O)[O-])cc1` [Compound 7, 4-nitro-N-(2-oxo-oxazolidin-3-yl)benzamide] the melting point was 206 to 208 °C. In the case of `CCc1ccc(C(=O)NN2CCOC2=O)cc1` [Compound 11, 4-ethyl-N-(2-oxo-oxazolidin-3-yl)benzamide], the melting point is reported as 170 to 173 °C.
